Measurements: patent publication US20260306502A1, “MITOCHONDRIAL UNCOUPLERS FOR TREATMENT OF METABOLIC DISEASES AND CANCER” (Mito Biopharma, LLC, priority 2022, published 2026)
Where two headings read alike, the source gives them in different places.

How the values were obtained:
[1] = system: C2C12 cells; experiment: Mitochondrial uncoupling activity by oxygen consumption rate (OCR) assay, Seahorse, in presence of oligomycin; format: cell-based, mouse; details: Mus musculus, C2C12
Experimental: By definition, mitochondrial uncoupling is the decoupling of mitochondrial electron transport chain activity (mitochondrial oxidation) from ATP synthesis by mitochondrial ATP synthase. Technically, mitochondrial uncoupling activity is defined by the ability of a chemical compound to induce oxygen consumption of cells or isolated mitochondria in the presence of a mitochondrial ATP synthase inhibitor such as oligomycin. Accordingly, mitochondrial uncoupling activity was determined by oxygen consumption rate assay with a Seahorse XF96 or a Seahorse XF24 instrument following the vendor's instruction, using mouse myoblast C2C12 cells grown in a medium containing 10% fetal bovine serum. OCR was measured stepwise under the following conditions: first under normal growth conditions; then. OCR was measured after oligomycin was added to reach a final concentration of 2.5 μM); then OCR was measured after the compound was further added at varying concentrations. Finally, rotenone and antimycin A were added to confirm that the measurement was mitochondrial oxygen consumption (rotenone and […] mitochondrial electron transport chain inhibitors).
COCR-min the minimal concentration required for each compound to induce OCR in the presence of oligomycin, of disclosed compounds, was also determined by varying the final concentration of the compound added to the Seahorse OCR analysis experiment as described above (FIG. 2, varying testing compound concentration). Table 8 summarizes the mitochondrial uncoupling activity of disclosed compounds, as represented by COCR-min.

[2] = PO pharmacokinetic study, oral exposure (Example B3); format: in vivo; details: blood, po; for AUC at 24 h: 10 mg/kg gavage
Experimental: The blood concentration of the compound was then determined at 0 (pre-dosing), 5 min, 15 min, 30 min, 1 hr, 2 hr, 4 hr, 8 hr, 24 hr time points by LC-MS/MS analysis (See Tables 1 and 2, vide supra).

[3] = in the presence of oligomycin 2.5 μM, read-out: COCR-min: minimal concentration increasing OCR in the presence of oligomycin
[4] = minimal concentration leading to OCR increase, read-out: Activity (Cmin-OCR)

Row | AUC at 24 h [2] [ng·h/mL] | Structure (SMILES) | minimal effective concentration [1, 3] [µM] | also measured
1 | > 120000 | COCCOCc1cc(Cl)cc(C(=O)Nc2nc3ccc(C(F)(F)F)cc3s2)c1O [Compound 2, 5-chloro-2-hydroxy-3-((2-methoxyethoxy)methyl)-N-(6-(trifluoromethyl)benzo[d]thiazol-2-yl)benzamide] | < 5 | AUC(0-t) at 24 h ([2]; 10 mg/kg): 485000 ng·h/mL
2 | 10000 to 30000 | COCCN(C)Cc1cc(Cl)cc(C(=O)Nc2nc3ccc(C(F)(F)F)cc3s2)c1O [Compound 3, 5-chloro-2-hydroxy-3-(((2-methoxyethyl)(methyl)amino)methyl)-N-(6-(trifluoromethyl)benzo[d]thiazol-2-yl)benzamide] | < 5 | –
3 | 30000 to 60000 | COCCOCc1cc(Cl)cc(C(=O)Nc2ccc(C(F)(F)F)cc2Cl)c1O [Compound 4, 5-chloro-N-(2-chloro-4-(trifluoromethyl)phenyl)-2-hydroxy-3-((2-methoxyethoxy)methyl)benzamide] | < 5 | –
4 | > 120000 | COCc1cc(Cl)cc(C(=O)Nc2nc3ccc(C(F)(F)F)cc3s2)c1O [Compound 9, 5-chloro-2-hydroxy-3-(methoxymethyl)-N-(6-(trifluoromethyl)benzo[d]thiazol-2-yl)benzamide] | < 5 | AUC(0-t) at 24 h ([2]; 10 mg/kg): 180000 ng·h/mL
5 | > 120000 | O=C(Nc1nc2ccc(C(F)(F)F)cc2s1)c1cc(Cl)cc(C2CCOC2)c1O (centres unmarked) [Compound 14, 5-chloro-2-hydroxy-3-(tetrahydrofuran-3-yl)-N-(6-(trifluoromethyl)benzo[d]thiazol-2-yl)benzamide] | < 5 | –
6 | 10000 to 30000 | Cl.O=C(Nc1nc2ccc(C(F)(F)F)cc2s1)c1cc(Cl)cc(CCN2CCOCC2)c1O [Compound 17, 5-chloro-2-hydroxy-3-(2-morpholinoethyl)-N-(6-(trifluoromethyl)benzo[d]thiazol-2-yl)benzamide] | < 5 | –
7 | 10000 to 30000 | O=C(Nc1nc2ccc(C(F)(F)F)cc2s1)c1cc(Cl)cc(CN2CCCCC2)c1O [Compound 26, 5-chloro-2-hydroxy-3-(piperidin-1-ylmethyl)-N-(6-(trifluoromethyl)benzo[d]thiazol-2-yl)benzamide] | < 5 | –
8 | 30000 to 60000 | O=C(Nc1nc2ccc(C(F)(F)F)cc2s1)c1cc(Cl)cc(CN2CCC2)c1O [Compound 27, 3-(azetidin-1-ylmethyl)-5-chloro-2-hydroxy-N-(6-(trifluoromethyl)benzo[d]thiazol-2-yl)benzamide] | < 5 | –
9 | – | O=C(Nc1nc2ccc(C(F)(F)F)cc2s1)c1cc(Cl)ccc1O [Compound 31 in WO 2016/081599, reference compound] | – | AUC(0-t) at 24 h ([2]; 20 mg/kg): ~2400 ng·h/mL
10 | 30000 to 60000 | COC1CCN(Cc2cc(Cl)cc(C(=O)Nc3nc4ccc(C(F)(F)F)cc4s3)c2O)C1 (centres unmarked) [Compound 32, 5-chloro-2-hydroxy-3-((3-methoxypyrrolidin-1-yl)methyl)-N-(6-(trifluoromethyl)benzo[d]thiazol-2-yl)benzamide] | < 5 | –
11 | 60000 to 120000 | COCCOCc1cc(C(F)(F)F)cc2sc(NC(=O)c3cc(Cl)cc(CN4CCOCC4)c3O)nc12 [Compound 65, 5-chloro-2-hydroxy-N-(4-((2-methoxyethoxy)methyl)-6-(trifluoromethyl)benzo[d]thiazol-2-yl)-3-(morpholinomethyl)benzamide] | < 5 | –
12 | – | Cc1cc(Cl)cc(C(=O)Nc2nc3c(COCCNS(C)(=O)=O)cc(C(F)(F)F)cc3s2)c1O [Compound 91, 5-chloro-2-hydroxy-3-methyl-N-(4-((2-(methylsulfonamido)ethoxy)methyl)-6-(trifluoromethyl)benzo[d]thiazol-2-yl)benzamide] | < 5 | –
13 | – | C[C@@H]1CN(Cc2cc(Cl)cc(C(=O)Nc3nc4c(COCCNS(C)(=O)=O)cc(C(F)(F)F)cc4s3)c2O)C[C@H](C)O1 [Compound 92, 5-chloro-3-((cis-2,6-dimethylmorpholino)methyl)-2-hydroxy-N-(4-((2-(methylsulfonamido)ethoxy)methyl)-6-(trifluoromethyl)benzo[d]thiazol-2-yl)benzamide] | < 5 | –
14 | – | COCCN(CCOC)Cc1cc(Cl)cc(C(=O)Nc2nc3c(COCCNS(C)(=O)=O)cc(C(F)(F)F)cc3s2)c1O [Compound 93, 3-((bis(2-methoxyethyl)amino)methyl)-5-chloro-2-hydroxy-N-(4-((2-(methylsulfonamido)ethoxy)methyl)-6-(trifluoromethyl)benzo[d]thiazol-2-yl)benzamide] | < 5 | –
15 | – | O=C(Nc1nc2ccc(C(F)(F)F)cc2s1)c1cc(Cl)cc(CN2CCCC(F)C2)c1O (centres unmarked) [Example 58, 5-chloro-3-((3-fluoropiperidin-1-yl)methyl)-2-hydroxy-N-(6-(trifluoromethyl)benzo[d]thiazol-2-yl)benzamide] | < 5 | –
16 | – | O=C(Nc1nc2ccc(C(F)(F)F)cc2s1)c1cc(Cl)cc(CN2CCCC(F)(F)C2)c1O [Example 59, 5-chloro-3-((3,3-difluoropiperidin-1-yl)methyl)-2-hydroxy-N-(6-(trifluoromethyl)benzo[d]thiazol-2-yl)benzamide] | < 5 | –
17 | – | O=C(Nc1nc2ccc(C(F)(F)F)cc2s1)c1cc(Cl)cc(CN2CCC(F)CC2)c1O [Example 60, 5-chloro-3-((4-fluoropiperidin-1-yl)methyl)-2-hydroxy-N-(6-(trifluoromethyl)benzo[d]thiazol-2-yl)benzamide] | < 5 | –
18 | – | O=C(Nc1nc2ccc(C(F)(F)F)cc2s1)c1cc(Cl)cc(CN2CCCC(C(F)(F)F)C2)c1O (centres unmarked) [Example 61, 5-chloro-2-hydroxy-N-(6-(trifluoromethyl)benzo[d]thiazol-2-yl)-3-((3-(trifluoromethyl)piperidin-1-yl)methyl)benzamide] | < 5 | –
19 | – | O=C(Nc1nc2ccc(C(F)(F)F)cc2s1)c1cc(Cl)cc(CN2CCC(F)(F)CC2)c1O [Example 62, 5-chloro-3-((4,4-difluoropiperidin-1-yl)methyl)-2-hydroxy-N-(6-(trifluoromethyl)benzo[d]thiazol-2-yl)benzamide] | < 5 | –
20 | – | C[C@@H]1CN(Cc2cc(Cl)cc(C(=O)Nc3nc4c(CNS(C)(=O)=O)cc(C(F)(F)F)cc4s3)c2O)C[C@H](C)O1 [Example 72, 5-chloro-3-((cis-2,6-dimethylmorpholino)methyl)-2-hydroxy-N-(4-(methylsulfonamidomethyl)-6-(trifluoromethyl)benzo[d]thiazol-2-yl)benzamide] | < 5 | –
21 | – | COCCN(CCOC)Cc1cc(Cl)cc(C(=O)Nc2nc3c(CNS(C)(=O)=O)cc(C(F)(F)F)cc3s2)c1O [Example 74, 3-((bis(2-methoxyethyl)amino)methyl)-5-chloro-2-hydroxy-N-(4-(methylsulfonamidomethyl)-6-(trifluoromethyl)benzo[d]thiazol-2-yl)benzamide] | < 5 | –
22 | – | C[C@@H]1CN(Cc2cc(Cl)cc(C(=O)Nc3nc4c(CN5CCN(C)CC5)cc(C(F)(F)F)cc4s3)c2O)C[C@H](C)O1 [Example 79, 5-chloro-3-((cis-2,6-dimethylmorpholino)methyl)-2-hydroxy-N-(4-((4-methylpiperazin-1-yl)methyl)-6-(trifluoromethyl)benzo[d]thiazol-2-yl)benzamide] | < 5 | –
23 | – | CCC(=O)NCc1cc(C(F)(F)F)cc2sc(NC(=O)c3cc(Cl)cc(C)c3O)nc12 [Example 90, 5-chloro-2-hydroxy-3-methyl-N-(4-(propionamidomethyl)-6-(trifluoromethyl)benzo[d]thiazol-2-yl)benzamide] | 5 to 10 | –
24 | – | Cc1cc(Cl)cc(C(=O)Nc2nc3c(C4CCN(C)CC4)cc(C(F)(F)F)cc3s2)c1O [Example 94, 5-chloro-2-hydroxy-3-methyl-N-(4-(1-methylpiperidin-4-yl)-6-(trifluoromethyl)benzo[d]thiazol-2-yl)benzamide] | < 5 | –
25 | – | Cc1cc(Cl)cc(C(=O)Nc2nc3c(CN4CCOCC4)cc(C(F)(F)F)cc3s2)c1O [Example 95, 5-chloro-2-hydroxy-3-methyl-N-(4-(morpholinomethyl)-6-(trifluoro-methyl)benzo[d]thiazol-2-yl)benzamide] | < 5 | –
26 | – | Cc1cc(Cl)cc(C(=O)Nc2nc3c(CN(C)C)cc(C(F)(F)F)cc3s2)c1O [Example 96, 5-chloro-N-(4-((dimethylamino)methyl)-6-(trifluoromethyl)benzo[d]thiazol-2-yl)-2-hydroxy-3-methylbenzamide] | < 5 | –
27 | – | O=C(Nc1ccc(C(F)(F)F)nc1)c1cc(Cl)cc(C2CCOC2)c1O (centres unmarked) [Example 98, 5-chloro-2-hydroxy-3-(tetrahydrofuran-3-yl)-N-(6-(trifluoromethyl)pyridin-3-yl)benzamide] | > 10 | –
28 | – | COCOCc1cc(Cl)cc(C(=O)Nc2nc3ccc(C(F)(F)F)cc3s2)c1O [drawing 255] | – | minimal effective concentration [1, 4]: 2.5 µM
29 | – | COCCOCc1cc(Cl)cc(C(=O)Nc2nc3ccc(C(F)(F)F)cc3s2)c1O [drawing 256] | – | minimal effective concentration [1, 4]: 2.5 µM
